Here are results for 29 compounds from ChEMBL document CHEMBL1275379, “Indazolylpyrazolopyrimidine as highly potent B-Raf inhibitors with in vivo activity” (J Med Chem, 2010).

One series deals with A-375. The series is described as follows: Growth inhibition of human A375 cells after 4 days by MTT assay. It is filed as functional, cell-based. Conditions: A-375, 96 h.
Series [1] can be described thus: Half life in nude mouse liver microsomes. It is filed as ADME, Microsome.
Series [2] can be described thus: Half life in human liver microsomes. It is filed as ADME, Microsome. (Microsomes from liver hold many membrane-bound enzymes, among them those of drug oxidation.)
Series [3] deals with Serine/threonine-protein kinase B-raf (Homo sapiens), P15056 [V600E]. The series is described as follows: Inhibition of BRAF V600E mutant in human A375 cells assessed as reduction of ERK phosphorylation. Conditions: A-375. It counts as cell-based.
Series [4] addresses Serine/threonine-protein kinase B-raf (Homo sapiens, UniProt P15056). Put plainly: Inhibition of BRAF.

Each structure is given as a SMILES string. Active and inactive are the calls of the source.

By IC50 is commonly meant the concentration needed to halve the response being measured. The low end stands for greater potency, the high end for weaker potency. Usually half-life stands for the time needed for the level to fall by half in the phase considered.

Chain of Serine/threonine-protein kinase B-raf (P15056 whole entry): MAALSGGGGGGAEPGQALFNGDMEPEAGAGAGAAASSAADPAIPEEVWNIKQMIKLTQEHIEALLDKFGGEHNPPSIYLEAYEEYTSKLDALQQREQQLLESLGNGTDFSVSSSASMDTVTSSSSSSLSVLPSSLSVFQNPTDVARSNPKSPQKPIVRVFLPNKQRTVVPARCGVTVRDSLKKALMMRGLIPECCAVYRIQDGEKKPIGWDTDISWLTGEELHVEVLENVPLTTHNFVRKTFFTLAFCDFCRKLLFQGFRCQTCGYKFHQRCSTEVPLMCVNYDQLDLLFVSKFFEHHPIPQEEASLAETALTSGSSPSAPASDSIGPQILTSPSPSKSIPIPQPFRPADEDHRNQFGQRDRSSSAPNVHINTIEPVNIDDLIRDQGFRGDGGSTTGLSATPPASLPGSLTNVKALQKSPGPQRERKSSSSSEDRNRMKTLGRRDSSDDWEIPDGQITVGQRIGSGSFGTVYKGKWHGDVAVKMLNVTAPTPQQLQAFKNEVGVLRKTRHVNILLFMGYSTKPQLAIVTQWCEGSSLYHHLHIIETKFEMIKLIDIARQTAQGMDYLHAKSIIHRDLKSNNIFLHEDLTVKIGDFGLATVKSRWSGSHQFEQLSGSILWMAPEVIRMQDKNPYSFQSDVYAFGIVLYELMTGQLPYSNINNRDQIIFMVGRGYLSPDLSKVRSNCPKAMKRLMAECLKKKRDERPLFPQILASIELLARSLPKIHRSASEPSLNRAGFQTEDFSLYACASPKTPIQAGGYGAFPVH
Chain of Serine/threonine-protein kinase B-raf (Homo sapiens), P15056 [V600E] (P15056 whole entry V600E): as the sequence (P15056 whole entry) above, with V600E counted along it

The compound `CN1C[C@@H]2C[C@H]1CN2c1cccc(-c2ccnc3c(-c4cccc5[nH]ncc45)c(-c4ccncc4)nn23)c1` returned an IC50 with A-375 of 1400 nM.
In the case of `CN1C[C@@H]2C[C@H]1CN2c1ccc(-c2ccnc3c(-c4cccc5[nH]ncc45)c(-c4ccncc4)nn23)c(F)c1`, the results for the half-life in series [1] and in series [2] were more than 30 min and 17 min, respectively. The IC50 in the series on A-375 is 44 nM; in series [4], 0.23 nM. The inhibition result in series [3] was “Active”.
In the series with A-375, `c1cc(-c2c(-c3ccncc3)nn3c(-c4ccc(CN5C[C@@H]6C[C@H]5CO6)cc4)ccnc23)c2cn[nH]c2c1` yielded a 50% inhibitory concentration (IC50) of 945 nM.
In turn, `CN1C[C@@H]2C[C@H]1CN2c1ccc(-c2ccnc3c(-c4cccc(O)c4)c(-c4ccncc4)nn23)cc1` yielded a half-maximal inhibitory concentration (IC50) in the series with A-375 of 77 nM. Besides, in series [3], the inhibition entry was “Active”.
For `Cc1cc(N2C[C@@H]3C[C@H]2CN3C)ccc1-c1ccnc2c(-c3ccc(F)c4[nH]ncc34)c(-c3ccncc3)nn12`, the concentration for half-maximal inhibition (IC50) in the series with A-375 was 188 nM; in series [4], less than 0.32 nM.
On the same counts, the results for `CN1C[C@@H]2C[C@H]1CN2c1ccc(-c2ccnc3c(-c4cccc5[nH]ncc45)c(-c4ccncc4)nn23)cc1` are 202 nM and 1.2 nM.
On the same counts, the results for `CN1C[C@@H]2C[C@H]1CN2c1cc(F)c(-c2ccnc3c(-c4cccc5[nH]ncc45)c(-c4ccncc4)nn23)cc1F` are 87 nM and 0.38 nM.
On the same counts, the results for `CN1C[C@@H]2C[C@H]1CN2c1cc(F)c(-c2ccnc3c(-c4ccc(F)c5[nH]ncc45)c(-c4ccncc4)nn23)c(F)c1` are 17 nM and 0.11 nM.
`c1cc(-c2c(-c3ccncc3)nn3c(-c4ccc(CN5C[C@@H]6C[C@H]5CN6)cc4)ccnc23)c2cn[nH]c2c1`: the half-maximal inhibitory concentration (IC50) came to 9480 nM in the series on A-375 and 2.3 nM in series [4].
Consider `CN1C[C@@H]2C[C@H]1CN2c1ccc(-c2ccnc3c(-c4cccc5[nH]ncc45)c(-c4ccncc4)nn23)cc1C(F)(F)F`, for which the 50% inhibitory concentration (IC50) in the series with A-375 is 273 nM. That is a sub-micromolar value.
For the compound `CN1C[C@@H]2C[C@H]1CN2c1ccc(-c2ccnc3c(-c4ccc(F)c5[nH]ncc45)c(-c4ccncc4)nn23)c(F)c1`, the IC50 was 33 nM in the series with A-375 and less than 0.1 nM in series [4].
Take `CCN1C[C@@H]2C[C@H]1CN2c1cc(F)c(-c2ccnc3c(-c4cccc5[nH]ncc45)c(-c4ccncc4)nn23)c(F)c1`: in series [2], the half-life turned out to be 11 min. Also, the 50% inhibitory concentration (IC50) is 56 nM with A-375 and less than 0.32 nM in series [4].
Consider `CN1C[C@@H]2C[C@H]1CN2c1c(F)c(F)c(-c2ccnc3c(-c4cccc5[nH]ncc45)c(-c4ccncc4)nn23)c(F)c1F`, for which the IC50 stood at 70 nM in the series on A-375 and 0.35 nM in series [4].
Turning to `CC(C)N1C[C@@H]2C[C@H]1CN2c1cc(F)c(-c2ccnc3c(-c4cccc5[nH]ncc45)c(-c4ccncc4)nn23)c(F)c1`, the values for the half-life in series [1] and in series [2] were 17 min and 5 min, respectively. For the same compound, the 50% inhibitory concentration (IC50) was 55 nM with A-375 and less than 0.32 nM in series [4].
On the same counts, the results for `Fc1cc(N2C[C@@H]3C[C@H]2CN3C2CCC2)cc(F)c1-c1ccnc2c(-c3cccc4[nH]ncc34)c(-c3ccncc3)nn12` are 5 min, 3 min, 78 nM and less than 0.32 nM.
For `CN1C[C@@H]2C[C@H]1CN2c1ccc(-c2ccnc3c(-c4cccc5[nH]ncc45)c(-c4ccncc4)nn23)c(Cl)c1`, the IC50 in the series on A-375 was 39 nM; in series [4] it was less than 0.1 nM.
The compound `CN1C[C@@H]2C[C@H]1CN2c1c(F)cc(-c2ccnc3c(-c4cccc5[nH]ncc45)c(-c4ccncc4)nn23)cc1F` displayed an IC50 in the series with A-375 of 1250 nM. That is a single-digit micromolar value.
Turning to `CN1C[C@@H]2C[C@H]1CN2c1ccc(-c2ccnc3c(-c4ccc(F)c5[nH]ncc45)c(-c4ccncc4)nn23)cc1`, the IC50 is 68 nM in the series on A-375 and 0.5 nM in series [4].
Turning to `Cc1cc(N2C[C@@H]3C[C@H]2CN3C)ccc1-c1ccnc2c(-c3cccc4[nH]ncc34)c(-c3ccncc3)nn12`, the IC50 in the series with A-375 was determined as 137 nM; in series [4], 0.51 nM.
For `Fc1cc(CN2C[C@H]3C[C@@H]2CO3)ccc1-c1ccnc2c(-c3cccc4[nH]ncc34)c(-c3ccncc3)nn12` the same measures were 78 nM and 0.52 nM.
For `Fc1cc(CN2C3COCC2COC3)ccc1-c1ccnc2c(-c3cccc4[nH]ncc34)c(-c3ccncc3)nn12` the same measures were 304 nM and 0.77 nM.
As to `CN1C[C@@H]2CC[C@H]1CN2c1ccc(-c2ccnc3c(-c4cccc5[nH]ncc45)c(-c4ccncc4)nn23)c(F)c1`, the half-inhibitory concentration (IC50) with A-375 was determined as 118 nM; in series [4] it was 0.41 nM.
On the same counts, the results for `CN1C[C@@H]2C[C@H]1CN2c1ccc(-c2ccnc3c(-c4cccc5[nH]ncc45)c(-c4ccncc4)nn23)c2ccccc12` are 25000 nM and 1 nM.
Take `CN(C)c1cc(N2C[C@@H]3C[C@H]2CN3C)ccc1-c1ccnc2c(-c3cccc4[nH]ncc34)c(-c3ccncc3)nn12`: in the series on A-375, the IC50 worked out at 1850 nM.
Take `CN1C[C@@H]2C[C@H]1CN2c1ccc(-c2ccnc3c(-c4cccc5[nH]ncc45)c(-c4ccncc4)nn23)c(F)c1F`: the IC50 in the series on A-375 was 107 nM; in series [4], 0.61 nM.
With `CN1C[C@@H]2CC[C@H]1CN2c1ccc(-c2ccnc3c(-c4cccc5[nH]ncc45)c(-c4ccncc4)nn23)cc1`, the values for the IC50 (in the series on A-375; in series [4]) were 185 nM and 0.71 nM, respectively.
Take `CC(C)CN1C[C@@H]2C[C@H]1CN2c1cc(F)c(-c2ccnc3c(-c4cccc5[nH]ncc45)c(-c4ccncc4)nn23)c(F)c1`: the values for the half-life in series [1] and in series [2] were 4 min and 3 min, respectively. Besides, the IC50 was 89 nM in the series on A-375 and less than 0.32 nM in series [4].
As to `CN1C[C@@H]2C[C@H]1CN2c1ccc(-c2ccnc3c(-c4cccc5[nH]ncc45)c(-c4ccncc4)nn23)c(Br)c1`, the IC50 in series [4] was less than 0.32 nM.
Take `Fc1cc(CN2C[C@@H]3C[C@H]2CO3)ccc1-c1ccnc2c(-c3cccc4[nH]ncc34)c(-c3ccncc3)nn12`: the half-inhibitory concentration (IC50) with A-375 turned out to be 268 nM; in series [4], 1.2 nM.
